The record followed here is publication PMC10804683, “Identification of the pyridoxal 5′‐phosphate allosteric site in human pyridox(am)ine 5′‐phosphate oxidase” (Protein Science : A Publication of the Protein Society, 2024).

Test [1] addresses T1, human PNPO F48A/E50L/H248N/R258L variant (holo-enzyme) (Homo sapiens, UniProt Q9NVS9, E50L/F48A/H248N/R258L).
T1 construct: a main form corresponding to the entire protein; made in house; host or cells: E. coli BL21(DE3)
T1 sequence (Q9NVS9 1-261 F48A/E50L/H248N/R258L): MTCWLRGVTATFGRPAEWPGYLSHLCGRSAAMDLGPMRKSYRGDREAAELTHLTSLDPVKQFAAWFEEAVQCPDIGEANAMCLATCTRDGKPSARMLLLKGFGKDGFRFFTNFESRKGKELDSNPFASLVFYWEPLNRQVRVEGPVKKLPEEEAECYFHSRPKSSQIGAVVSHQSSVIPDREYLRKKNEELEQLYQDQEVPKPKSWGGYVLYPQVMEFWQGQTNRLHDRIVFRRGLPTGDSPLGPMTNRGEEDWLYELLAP
The experiment in a line: PLP binding by FMN fluorescence changes, holo quadruple variant. Particulars: 100 nM enzyme, read-out: PLP binding KD^FLUO. The text has this:
PLP binding to PNPO can be detected and quantitatively measured using differential scanning fluorimetry (DSF) and also by measuring FMN fluorescence changes. We had previously attributed DSF changes to PLP binding at the active site, while FMN fluorescence changes were attributed to PLP binding at the allosteric site (Barile et al., [2019], [2020]). Previous experiments carried out with the PNPO R161C variant, affecting a residue that is essential for substrate binding and catalysis (and therefore also for PLP binding at the active site), confirms that DSF measurements only report PLP binding at the active site (Barile et al., [2021]; Table 1). […] We expected to observe no FMN fluorescence changes upon titration of the variants with PLP. However, this was not the case, and the dissociation constant values obtained by observing the FMN fluorescence emission were only up to threefold larger in the variants with respect to wild type PNPO (Figure 3). […] To check the second possibility, we measured intrinsic fluorescence changes of wild type and variant apo‐forms (i.e., without FMN) upon PLP titration. […]
Analyses of PLP binding, based on FMN fluorescence increase observed upon binding of PLP to PNPO, were performed as described in Barile et al. ([2020]). […] Emission spectra were recorded from […], with excitation and emission slits set at 3 and 5 nm, respectively. […]

The target of test [2] is T2, human PNPO F48A/E50L/R161C/R258L variant (Homo sapiens, UniProt Q9NVS9, E50L/F48A/R161C/R258L).
T2 construct: a main form corresponding to the entire protein; made in house; host or cells: E. coli BL21(DE3)
T2 sequence (Q9NVS9 1-261 F48A/E50L/R161C/R258L): T1 sequence (Q9NVS9 1-261 F48A/E50L/H248N/R258L) with R161C, N248H
The experiment in a line: PLP binding by DSF, F48A/E50L/R161C/R258L. An excerpt: PLP binding to PNPO can be detected and quantitatively measured using differential scanning fluorimetry (DSF) and also by measuring FMN fluorescence changes. We had previously attributed DSF changes to PLP binding at the active site, while FMN fluorescence changes were attributed to PLP binding at the allosteric site (Barile et al., [2019], [2020]). Previous experiments carried out with the PNPO R161C variant, affecting a residue that is essential for substrate binding and catalysis (and therefore also for PLP binding at the active site), confirms that DSF measurements only report PLP binding at the active site (Barile et al., [2021]; Table 1). The dissociation constant values obtained with DSF are almost the same for the three variants and doubled with respect to the wild type enzyme (Figure 2, Table 1). This behavior reflects the decrease of affinity of these variants for the substrates compared to the wild type PNPO. We expected to observe no FMN fluorescence changes upon titration of the variants with PLP. However, this was not the case, and the dissociation constant values obtained by observing the FMN fluorescence emission were only up to threefold larger in the variants with respect to wild type PNPO (Figure 3). […] To check the second possibility, we measured intrinsic fluorescence changes of wild type and variant apo‐forms (i.e., without FMN) upon PLP titration. […]

Test [3] deals with T3, human PNPO F48A/E50L/H248N/R258L variant (Homo sapiens, UniProt Q9NVS9, E50L/F48A/H248N/R258L).
T3 construct: a main form corresponding to the entire protein; made in house; host or cells: E. coli BL21(DE3)
T3 sequence (Q9NVS9 1-261 F48A/E50L/H248N/R258L): T1 sequence (Q9NVS9 1-261 F48A/E50L/H248N/R258L)
The experiment in a line: PLP inhibition kinetics of PNP oxidation, quadruple variant. The format is biochemical. Conditions: Na-HEPES pH 7.6, 2 μM enzyme, PLP 0–16 μM. How it is done: This is a general inhibition mechanism that takes into account the possibility of PLP binding to both the active and allosteric sites. PLP binding at the active site gives a complete, competitive inhibition, whereas PLP binding at the allosteric site yields a substrate‐enzyme‐PLP ternary complex that is still catalytically active, although k CAT is reduced by a coefficient whose value is around 0.15. A thorough inhibition kinetic characterization was carried out with the wild type, F48A, F48A/E50L/R258L, and F48A/E50L/H248N/R258L PNPO forms, so as to evaluate the effect of the variations on the allosteric properties of the enzyme. The initial velocity of PNP conversion into PLP was measured in Na‐HEPES buffer (in which PLP is allowed to accumulate) by varying substrate concentration at different, fixed exogenous PLP concentrations, using 2 μM enzyme. A series of saturation curves were obtained that were used to fit the Michaelis–Menten equation (Figure 5), acquiring apparent V MAX and K M values as a function of PLP concentration. […]
FIGURE 5 Characterization of PLP inhibition. Upper panels: The initial velocity of the reaction was measured with 2 μM wild type (a), and the F48A (b), F48A/E50L/R258L (c), and F48A/E50L/H248N/R258L (d) PNPO variants, varying PNP concentration while keeping exogenous PLP fixed at different concentrations (0, 0.25, 0.5, 1, 2, 4, 8, and 16 μM). […]

Where a chain is given by its changes, count along the chain named.

On to `Cc1ncc(COP(=O)(O)O)c(C=O)c1O` [PLP, pyridoxal 5′‐phosphate], for which the Kd (as a rule, a measure of binding affinity in units of concentration) in test [1] came out at 2850 ± 250 nM. Moreover, in test [2], the “PLP binding KD^DSF” value is “No binding”. In addition, in test [3], the “type of inhibition of PNP oxidation by PLP” value is “pure competitive inhibition”.
